What was measured:
Vasopressin V1a receptor [1] = molecular target: T1, Vasopressin V1a receptor (Homo sapiens, UniProt P37288); experiment: Displacement of [3H]-AVP from human V1A receptor expressed in CHO cell membranes by radioligand binding assay
Target sequence in this assay (P37288 whole entry): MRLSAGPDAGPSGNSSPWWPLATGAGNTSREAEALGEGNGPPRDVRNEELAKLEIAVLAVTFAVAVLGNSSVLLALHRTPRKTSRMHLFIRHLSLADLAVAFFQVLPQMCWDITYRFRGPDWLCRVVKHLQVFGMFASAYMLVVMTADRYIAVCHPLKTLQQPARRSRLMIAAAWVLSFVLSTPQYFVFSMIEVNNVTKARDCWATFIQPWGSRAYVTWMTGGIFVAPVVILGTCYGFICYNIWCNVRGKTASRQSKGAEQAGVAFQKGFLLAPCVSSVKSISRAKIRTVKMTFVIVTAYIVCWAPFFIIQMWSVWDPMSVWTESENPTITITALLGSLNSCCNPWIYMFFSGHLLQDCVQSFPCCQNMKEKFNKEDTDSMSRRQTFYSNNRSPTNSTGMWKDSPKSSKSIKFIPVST

[2] = molecular target: T2, Oxytocin receptor (Homo sapiens) (UniProt P30559); experiment: Agonist activity at human OTR receptor expressed in CHO cells assessed as increase in myo-inositol 1-phosphate accumulation at 1 uM by IP-One assay relative to OT; format: functional, cell-based
T2 sequence (whole entry): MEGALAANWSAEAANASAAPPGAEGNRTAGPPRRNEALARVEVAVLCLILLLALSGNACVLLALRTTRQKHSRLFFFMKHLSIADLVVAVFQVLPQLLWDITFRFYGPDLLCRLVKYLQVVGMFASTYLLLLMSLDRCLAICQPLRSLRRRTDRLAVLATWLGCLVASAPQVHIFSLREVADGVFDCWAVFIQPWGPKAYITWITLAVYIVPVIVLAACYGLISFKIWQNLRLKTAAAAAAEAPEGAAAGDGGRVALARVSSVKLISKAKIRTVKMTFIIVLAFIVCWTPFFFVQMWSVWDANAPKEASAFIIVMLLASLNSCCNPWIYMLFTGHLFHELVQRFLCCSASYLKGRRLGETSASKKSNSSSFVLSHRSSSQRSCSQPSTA

[3] = molecular target: T2, Oxytocin receptor (Homo sapiens); experiment: Antagonist activity at human OTR receptor expressed in CHO cells assessed as inhibition of OT-induced myo-inositol 1-phosphate accumulation at 1 uM by IP-One assay relative to OT; format: functional, cell-based
Vasopressin V1a receptor [4] = molecular target: T1, Vasopressin V1a receptor; experiment: Antagonist activity at human V1A receptor expressed in CHO cells assessed as inhibition of AVP-induced myo-inositol 1-phosphate accumulation at 1 uM by IP-One assay relative to AVP; format: functional, cell-based
Target sequence in this assay (P37288 whole entry, looked up): as the sequence (P37288 whole entry) above

Vasopressin V2 receptor [5] = molecular target: T3, Vasopressin V2 receptor (Homo sapiens, UniProt P30518); experiment: Displacement of [3H]-AVP from human V2 receptor expressed in CHO cell membranes by radioligand binding assay
Vasopressin V1a receptor [6] = molecular target: T1, Vasopressin V1a receptor; experiment: Agonist activity at human V1A receptor expressed in CHO cells assessed as increase in myo-inositol 1-phosphate accumulation at 1 uM by IP-One assay relative to AVP; format: functional, cell-based
Target sequence in this assay (P37288 whole entry, looked up): as the sequence (P37288 whole entry) above

Oxytocin receptor [7] = molecular target: T4, Oxytocin receptor (Homo sapiens, UniProt P30559); experiment: Displacement of [3H]-AVP from human OXR receptor expressed in CHO cell membranes by radioligand binding assay
T4 sequence (P30559 whole entry): T2 sequence (whole entry)

Vasopressin V1a receptor [8] = molecular target: T1, Vasopressin V1a receptor; experiment: Displacement of DY647 from SNAP-tagged V1A receptor (unknown origin) expressed in HEK293 cells by TR-FRET assay; format: cell-based
Target sequence in this assay (P37288 whole entry): as the sequence (P37288 whole entry) above

Oxytocin receptor [9] = molecular target: T4, Oxytocin receptor; experiment: Displacement of DY647 from SNAP-tagged OTR receptor (unknown origin) expressed in HEK293 cells by TR-FRET assay; format: cell-based
Vasopressin V1a receptor [10] = molecular target: T1, Vasopressin V1a receptor; experiment: Agonist activity at human V1A receptor expressed in HEK cells assessed as increase in intracellular calcium flux at 1 uM incubated for 45 mins by Indo1-AM dye based fluorescence assay relative to AVP; format: functional, cell-based
Target sequence in this assay (P37288 whole entry, looked up): as the sequence (P37288 whole entry) above

[11] = molecular target: T2, Oxytocin receptor (Homo sapiens); experiment: Agonist activity at human OTR expressed in HEK cells assessed as increase in intracellular calcium flux at 1 uM incubated for 45 mins by Indo1-AM dye based fluorescence assay relative to OT; format: functional, cell-based
Vasopressin V2 receptor [12] = molecular target: T3, Vasopressin V2 receptor; experiment: Displacement of DY647 from SNAP-tagged V2 receptor (unknown origin) expressed in HEK293 cells by TR-FRET assay; format: cell-based
Vasopressin V1a receptor [13] = molecular target: T1, Vasopressin V1a receptor; experiment: Antagonist activity at human V1A receptor expressed in HEK cells assessed as inhibition of AVP-induced intracellular calcium flux incubated for 45 mins by Indo1-AM dye based fluorescence assay relative to AVP; format: functional, cell-based
Target sequence in this assay (P37288 whole entry): as the sequence (P37288 whole entry) above

Oxytocin receptor [14] = molecular target: T4, Oxytocin receptor; experiment: Antagonist activity at human OTR expressed in HEK cells assessed as inhibition of OT-induced intracellular calcium flux incubated for 45 mins by Indo1-AM dye based fluorescence assay; format: functional, cell-based
Vasopressin V1a receptor [15] = molecular target: T1, Vasopressin V1a receptor; experiment: Antagonist activity at human V1A receptor expressed in CHO cells assessed as inhibition of AVP-induced myo-inositol 1-phosphate accumulation by IP-One assay; format: functional, cell-based
Target sequence in this assay (P37288 whole entry, looked up): as the sequence (P37288 whole entry) above

[16] = molecular target: T2, Oxytocin receptor (Homo sapiens); experiment: Antagonist activity at human OTR receptor expressed in CHO cells assessed as inhibition of OT-induced myo-inositol 1-phosphate accumulation by IP-One assay; format: functional, cell-based
Vasopressin V2 receptor [17] = molecular target: T3, Vasopressin V2 receptor; experiment: Antagonist activity at human V2 receptor expressed in CHO cells assessed as inhibition of AVP-induced cAMP accumulation by cAMP dynamic 2 assay; format: functional, cell-based
Homo sapiens [18] = species: Homo sapiens; experiment: Selectivity for human OTR receptor over human V2 receptor
Homo sapiens [19] = species: Homo sapiens; experiment: Selectivity for human V1a receptor over human V2 receptor
Vasopressin V2 receptor [20] = molecular target: T3, Vasopressin V2 receptor; experiment: Agonist activity at human V2 receptor expressed in CHO cells assessed as increase in cAMP accumulation by cAMP dynamic 2 assay; format: functional, cell-based
[21] = molecular target: T2, Oxytocin receptor (Homo sapiens); experiment: Agonist activity at human OTR expressed in HEK cells assessed as increase in intracellular calcium flux incubated for 45 mins by Indo1-AM dye based fluorescence assay relative to OT; format: functional, cell-based
Oxytocin receptor [22] = molecular target: T4, Oxytocin receptor; experiment: Agonist activity at human OTR expressed in HEK cells assessed as increase in intracellular calcium flux incubated for 45 mins by Indo1-AM dye based fluorescence assay; format: functional, cell-based
[23] = molecular target: T2, Oxytocin receptor (Homo sapiens); experiment: Antagonist activity at human OTR expressed in HEK cells assessed as inhibition of OT-induced intracellular calcium flux at 1 uM incubated for 45 mins by Indo1-AM dye based fluorescence assay relative to OT; format: functional, cell-based

T3 sequence (P30518 whole entry): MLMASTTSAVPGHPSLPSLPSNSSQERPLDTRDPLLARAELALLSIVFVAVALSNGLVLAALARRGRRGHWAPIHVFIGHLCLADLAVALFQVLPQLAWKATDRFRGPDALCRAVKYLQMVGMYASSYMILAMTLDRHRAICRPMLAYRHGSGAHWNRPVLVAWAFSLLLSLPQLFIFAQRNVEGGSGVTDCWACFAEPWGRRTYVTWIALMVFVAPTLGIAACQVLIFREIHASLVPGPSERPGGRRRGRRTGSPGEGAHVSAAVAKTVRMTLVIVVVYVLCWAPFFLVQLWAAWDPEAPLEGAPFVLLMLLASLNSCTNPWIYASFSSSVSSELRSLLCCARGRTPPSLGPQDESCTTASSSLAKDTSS

Row | Ki (Vasopressin V1a receptor [1]) | Emax [2] | inhibition [3] | inhibition (Vasopressin V1a receptor [4]) | Ki (Vasopressin V2 receptor [5]) | Emax (Vasopressin V1a receptor [6]) | Ki (Oxytocin receptor [7]) | Kinact (Vasopressin V1a receptor [15]) | Structure (SMILES) | other results
1 | 0.734 µM | < 10% | 15% | 37% | > 1 µM | < 10% | < 0.01 µM | – | Nc1ccc(C(=O)N2CCCCc3ccccc32)cc1 | –
2 | < 0.01 µM | – | – | 19% | > 1 µM | < 10% | < 0.01 µM | – | Cc1ccn(-c2ccc(C(=O)N3CCCC(=O)c4ccccc43)cc2)n1 | –
3 | – | – | – | – | – | – | – | – | Cc1cc(C(=O)N2Cc3cnn(C)c3Nc3ccccc32)ccc1CNC(=O)NCC(=O)N(C)C | Ki (Vasopressin V1a receptor [8]): > 1 µM; Ki (Oxytocin receptor [9]): 0.417 µM; Emax (Vasopressin V1a receptor [10]): 5 to 10%; Emax [11]: 5 to 10%; Ki (Vasopressin V2 receptor [12]): > 1 µM; IC50 (Vasopressin V1a receptor [13]): 0.05 µM; IC50 (Oxytocin receptor [14]): 0.775 µM
4 | 0.067 µM | < 10% | – | – | 0.233 µM | < 10% | 0.15 µM | 51 nM | O=C(c1ccc(-c2cccnc2)cc1)N1CCCCc2ccccc21 | Kinact [16]: 227 nM; Kinact (Vasopressin V2 receptor [17]): 78 nM
5 | < 0.01 µM | – | 14% | < 10% | < 0.01 µM | < 10% | < 0.01 µM | – | Cc1ccn(-c2ccc(C(=O)N3CCCC(=O)c4ccccc43)c(Cl)c2)n1 | –
6 | – | – | – | – | – | – | – | – | COC(=O)CNC(=O)NCc1ccc(C(=O)N2Cc3cnn(C)c3Nc3ccccc32)cc1C | Ki (Vasopressin V1a receptor [8]): > 1 µM; Ki (Oxytocin receptor [9]): 0.385 µM; Emax (Vasopressin V1a receptor [10]): 5 to 10%; Emax [11]: 5 to 10%; Ki (Vasopressin V2 receptor [12]): > 1 µM; IC50 (Vasopressin V1a receptor [13]): 0.11 µM; IC50 (Oxytocin receptor [14]): > 1 µM
7 | > 1 µM | < 10% | 19% | 15% | > 1 µM | < 10% | < 0.01 µM | – | C[N+](C)(C)c1ccc(C(=O)N2CCCCc3ccccc32)cc1 | –
8 | 0.504 µM | < 10% | 20% | – | 0.713 µM | < 10% | < 0.01 µM | 218 nM | O=C(c1ccc(Br)cc1)N1CCCCc2ccccc21 | –
9 | < 0.01 µM | – | 28% | 26% | 0.1 µM | < 10% | 0.8 µM | – | Cc1ccn(-c2ccc(C(=O)N3CCCC(O)c4ccccc43)c(Cl)c2)n1 (stereo unspecified) | Selectivity ratio (Homo sapiens [18]): 8; Selectivity ratio (Homo sapiens [19]): > 100; Kact (Vasopressin V2 receptor [20]): 28 nM
10 | – | – | – | – | – | < 10% | – | – | Cc1ccn(-c2ccc(C(=O)N3Cc4cnn(C)c4Nc4ccccc43)c(Cl)c2)n1 | Selectivity ratio (Homo sapiens [18]): 0.59; Selectivity ratio (Homo sapiens [19]): 0.93; Kact (Vasopressin V2 receptor [20]): 8.4 nM
11 | 0.556 µM | < 10% | 24.1% | – | 0.507 µM | < 10% | < 0.01 µM | 149 nM | O=C(c1ccc(Cl)cc1)N1CCCCc2ccccc21 | –
12 | – | – | – | – | – | – | – | – | Cc1cc(C(=O)N2Cc3cnn(C)c3Nc3ccccc32)ccc1CNC(=O)N1CCC[C@H]1C(=O)N(C)C | Ki (Vasopressin V1a receptor [8]): > 1 µM; Emax [21]: 34%; EC50 (Oxytocin receptor [22]): 0.3 µM; Ki (Oxytocin receptor [9]): > 1 µM; Emax (Vasopressin V1a receptor [10]): 5 to 10%; inhibition [23]: 5 to 10%; Ki (Vasopressin V2 receptor [12]): > 1 µM; IC50 (Vasopressin V1a receptor [13]): 0.095 µM
13 | 0.063 µM | < 10% | – | – | 0.121 µM | < 10% | 0.104 µM | 184 nM | CCCc1ccc(C(=O)N2CCCCc3ccccc32)cc1 | Kinact [16]: 172 nM; Kact (Vasopressin V2 receptor [20]): 92 nM
14 | < 0.01 µM | – | < 10% | < 10% | < 0.01 µM | < 10% | < 0.01 µM | – | Cc1ccn(-c2ccc(C(=O)N3CCCCCC3)c(Cl)c2)n1 | –
15 | 0.164 µM | – | 45% | 69% | 1.15 µM | < 10% | 0.686 µM | – | Cc1ccn(-c2ccc(C(=O)N3CCCC(O)c4ccccc43)cc2)n1 (stereo unspecified) | Selectivity ratio (Homo sapiens [18]): 0.6; Selectivity ratio (Homo sapiens [19]): 0.14
16 | 0.028 µM | < 10% | – | – | 0.052 µM | < 10% | 0.0374 µM | 421 nM | CCCCc1ccc(C(=O)N2CCCCc3ccccc32)cc1 | Kinact [16]: 113 nM; Kact (Vasopressin V2 receptor [20]): 18 nM
17 | 0.048 µM | < 10% | 36% | – | 0.16 µM | < 10% | 0.396 µM | 15 nM | O=C(c1ccc(I)cc1)N1CCCCc2ccccc21 | –
18 | 0.00228 µM | < 10% | – | – | 0.078 µM | < 10% | 0.0104 µM | – | O=C(c1ccc(-c2ccccc2)cc1)N1CCCCc2ccccc21 | Kinact [16]: 42 nM; Kinact (Vasopressin V2 receptor [17]): 132 nM
19 | 0.082 µM | < 10% | – | – | 0.468 µM | < 10% | > 1 µM | 81 nM | CN(C)c1ccc(C(=O)N2CCCCc3ccccc32)cc1 | Kinact [16]: 186 nM; Kact (Vasopressin V2 receptor [20]): 80 nM
20 | 0.034 µM | < 10% | – | – | 0.282 µM | < 10% | 0.084 µM | 48 nM | Cc1ccn(-c2ccc(C(=O)N3CCCCc4ccccc43)cc2)n1 | Kinact [16]: 112 nM; Selectivity ratio (Homo sapiens [18]): 0.3; Selectivity ratio (Homo sapiens [19]): 0.12; Kact (Vasopressin V2 receptor [20]): 13 nM
21 | 1.07 µM | < 10% | 32% | – | > 1 µM | < 10% | > 1 µM | 305 nM | CC(=O)Nc1ccc(C(=O)N2CCCCc3ccccc32)cc1 | –
22 | < 0.01 µM | – | < 10% | < 10% | 0.331 µM | < 10% | > 1 µM | – | Cc1ccn(-c2ccc(C(=O)N3CCCC(N(C)C)c4ccccc43)c(Cl)c2)n1 (stereo unspecified) | Selectivity ratio (Homo sapiens [18]): > 3; Selectivity ratio (Homo sapiens [19]): > 30; Kinact (Vasopressin V2 receptor [17]): 126 nM
23 | 0.741 µM | – | 21% | 15% | > 1 µM | < 10% | 1.33 µM | – | Cc1ccn(-c2ccc(C(=O)N3CCCC(N(C)C)c4ccccc43)cc2)n1 (stereo unspecified) | Selectivity ratio (Homo sapiens [19]): < 0.74
24 | 0.573 µM | < 10% | 30.6% | – | 0.334 µM | < 10% | 0.34 µM | 177 nM | O=C(c1ccc(-c2ncccn2)cc1)N1CCCCc2ccccc21 | –
25 | – | – | – | – | – | – | – | – | Cc1cc(C(=O)N2Cc3cnn(C)c3Nc3ccccc32)ccc1CNC(=O)NCC(=S)N(C)C | Ki (Vasopressin V1a receptor [8]): 0.082 µM; Ki (Oxytocin receptor [9]): 0.061 µM; Emax (Vasopressin V1a receptor [10]): 5 to 10%; Emax [11]: 5 to 10%; Ki (Vasopressin V2 receptor [12]): > 1 µM; IC50 (Vasopressin V1a receptor [13]): 0.009 µM; IC50 (Oxytocin receptor [14]): 0.6 µM

— ChEMBL document CHEMBL4196200 (J Med Chem, 2018)
